Activity calls are given as the source filed them. The calls are words filed in the database; no cut-off is given here.
How the values were obtained:
[1] = in vitro; settings: human, cryopreserved hepatocytes
[2] = Apparent permeability of the compound from apical to basolateral side in human Caco-2 cells incubated for 1 hr
[3] = in vitro; settings: mouse, cryopreserved hepatocytes
[4] = Plasma protein binding in Sprague-Dawley rat at 2 uM incubated for 4 hrs by rapid equilibrium dialysis
[5] = biological target: CYP2C9 (Homo sapiens, UniProt P11712); experiment: Inhibition of CYP2C9 in human liver microsomes at 10 uM in presence of NADPH relative to control
[6] = Plasma protein binding in human at 2 uM incubated for 4 hrs by rapid equilibrium dialysis
[7] = in vitro; settings: rat, cryopreserved hepatocytes
[8] = biological target: T1, CYP2C8 (Homo sapiens, UniProt P10632); experiment: Inhibition of CYP2C8 in human liver microsomes at 10 uM in presence of NADPH relative to control
T1 sequence (P10632 whole entry): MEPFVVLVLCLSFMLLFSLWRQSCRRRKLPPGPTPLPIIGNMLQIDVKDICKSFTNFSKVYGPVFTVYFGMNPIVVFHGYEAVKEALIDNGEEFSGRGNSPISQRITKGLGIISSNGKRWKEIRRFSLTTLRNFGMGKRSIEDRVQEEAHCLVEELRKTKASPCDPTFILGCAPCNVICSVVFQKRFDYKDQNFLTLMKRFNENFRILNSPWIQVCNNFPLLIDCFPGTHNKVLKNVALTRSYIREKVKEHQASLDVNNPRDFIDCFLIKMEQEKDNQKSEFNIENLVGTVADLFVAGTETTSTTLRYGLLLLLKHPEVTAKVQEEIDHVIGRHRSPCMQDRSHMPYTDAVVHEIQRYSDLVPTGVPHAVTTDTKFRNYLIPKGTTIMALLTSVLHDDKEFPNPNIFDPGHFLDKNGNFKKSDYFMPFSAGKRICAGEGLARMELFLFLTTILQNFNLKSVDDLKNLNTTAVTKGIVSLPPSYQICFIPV

[9] = AUC (0 to 24 hrs) in Sprague-Dawley rat at 1.5 mg/kg, po measured for 24 hrs by LC-MS/MS analysis; type: ADME, organism-based; settings: in vivo
[10] = Drug concentration in Sprague-Dawley rat liver at 5 mg/kg, po measured for 24 hrs by LC-MS/MS analysis; type: ADME, organism-based; settings: read-out: Ct
[11] = Cmax in Sprague-Dawley rat at 5 mg/kg, po measured for 24 hrs by LC-MS/MS analysis; type: ADME, organism-based; settings: in vivo
[12] = tested on: Rattus norvegicus; experiment: Antihypercholesterolemic activity against high fat diet-induced Sprague-Dawley rat model assessed as change in LDL-C level at 1.5 mg/kg, po measured at 1 to 24 hrs post dose; type: functional; settings: time 1-24 hrs
[13] = in vitro; settings: cynomolgus monkey, cryopreserved hepatocytes
[14] = in vitro; settings: dog, cryopreserved hepatocytes
[15] = tested on: Rattus norvegicus; experiment: Antihypercholesterolemic activity against high fat diet-induced Sprague-Dawley rat model assessed as change in T4 level at 1.5 mg/kg, po measured at 1 to 24 hrs post dose; type: functional; settings: time 1-24 hrs
[16] = tested on: Rattus norvegicus; experiment: Antihypercholesterolemic activity against high fat diet-induced Sprague-Dawley rat model assessed as change in T3 level at 5 mg/kg, po measured at 1 to 24 hrs post dose; type: functional; settings: time 1-24 hrs
[17] = tested on: Rattus norvegicus; experiment: Antihypercholesterolemic activity against high fat diet-induced Sprague-Dawley rat model assessed as change in LDL-C level at 5 mg/kg, po measured at 1 to 24 hrs post dose; type: functional; settings: time 1-24 hrs
[18] = Ratio AUC in mouse liver to plasma; settings: other tissue
[19] = tested on: Rattus norvegicus; experiment: Antihypercholesterolemic activity against high fat diet-induced Sprague-Dawley rat model assessed as change in T3 level at 0.15 mg/kg, po measured at 1 to 24 hrs post dose; type: functional; settings: time 1-24 hrs
[20] = organism: Rattus norvegicus; experiment: Antihypercholesterolemic activity against high fat diet-induced Sprague-Dawley rat model assessed as minimum effective dose measured after 24 hrs post dose; type: functional; settings: read-out: MED
[21] = tested on: Rattus norvegicus; experiment: Antihypercholesterolemic activity against high fat diet-induced Sprague-Dawley rat model assessed as change in total cholesterol level at 5 mg/kg, po measured at 1 to 24 hrs post dose; type: functional; settings: time 1-24 hrs
[22] = Drug concentration in Sprague-Dawley rat liver at 1.5 mg/kg, po measured for 24 hrs by LC-MS/MS analysis; type: ADME, organism-based; settings: read-out: Ct
[23] = Drug concentration in Sprague-Dawley rat plasma at 1.5 mg/kg, po measured for 24 hrs by LC-MS/MS analysis; type: ADME, organism-based
[24] = Effect on CPT1A gene expression in human Huh-7 cells measured for 24 hrs; settings: Huh-7, 24 h
[25] = tested on: Rattus norvegicus; experiment: Antihypercholesterolemic activity against high fat diet-induced Sprague-Dawley rat model assessed as change in T3 level at 1.5 mg/kg, po measured at 1 to 24 hrs post dose; type: functional; settings: time 1-24 hrs
[26] = tested on: Rattus norvegicus; experiment: Antihypercholesterolemic activity against high fat diet-induced Sprague-Dawley rat model assessed as change in LDL-C level at 0.15 mg/kg, po measured at 1 to 24 hrs post dose; type: functional; settings: time 1-24 hrs
[27] = Plasma protein binding in cynomolgus monkey at 2 uM incubated for 4 hrs by rapid equilibrium dialysis
[28] = Drug concentration in Sprague-Dawley rat plasma at 5 mg/kg, po measured for 24 hrs by LC-MS/MS analysis; type: ADME, organism-based
[29] = tested on: Rattus norvegicus; experiment: Antihypercholesterolemic activity against high fat diet-induced Sprague-Dawley rat model assessed as change in T4 level at 0.15 mg/kg, po measured at 1 to 24 hrs post dose; type: functional; settings: time 1-24 hrs
[30] = tested on: Rattus norvegicus; experiment: Antihypercholesterolemic activity against high fat diet-induced Sprague-Dawley rat model assessed as change in total cholesterol level at 1.5 mg/kg, po measured at 1 to 24 hrs post dose; type: functional; settings: time 1-24 hrs
[31] = Plasma protein binding in Beagle dog at 2 uM incubated for 4 hrs by rapid equilibrium dialysis
[32] = Cmax in Sprague-Dawley rat at 1.5 mg/kg, po measured for 24 hrs by LC-MS/MS analysis; type: ADME, organism-based; settings: in vivo
[33] = tested on: Rattus norvegicus; experiment: Antihypercholesterolemic activity against high fat diet-induced po dosed Sprague-Dawley rat model assessed as reduction in TC level measured after 24 hrs post dose; type: functional, organism-based; settings: dose 0.15-5 mg/kg
[34] = Ratio AUC in rat liver to plasma; settings: other tissue
[35] = tested on: Rattus norvegicus; experiment: Antihypercholesterolemic activity against high fat diet-induced Sprague-Dawley rat model assessed as change in total cholesterol level at 0.15 mg/kg, po measured at 1 to 24 hrs post dose; type: functional; settings: time 1-24 hrs
[36] = tested on: Rattus norvegicus; experiment: Antihypercholesterolemic activity against high fat diet-induced Sprague-Dawley rat model assessed as change in T4 level at 5 mg/kg, po measured at 1 to 24 hrs post dose; type: functional; settings: time 1-24 hrs
[37] = biological target: Sodium channel protein type 5 subunit alpha (Homo sapiens, UniProt Q14524); experiment: Inhibition of Nav1.5 (unknown origin)
[38] = biological target: Voltage-dependent L-type calcium channel subunit alpha-1C (Homo sapiens, UniProt Q13936); experiment: Inhibition of CaV1.2 (unknown origin)
[39] = biological target: T2, Solute carrier organic anion transporter family member 1B1 (Homo sapiens, UniProt Q9Y6L6); experiment: Inhibition of OATP1B1 (unknown origin) stably transfected in HEK293 cells at 1 to 100 uM; type: cell-based
T2 sequence (Q9Y6L6 whole entry): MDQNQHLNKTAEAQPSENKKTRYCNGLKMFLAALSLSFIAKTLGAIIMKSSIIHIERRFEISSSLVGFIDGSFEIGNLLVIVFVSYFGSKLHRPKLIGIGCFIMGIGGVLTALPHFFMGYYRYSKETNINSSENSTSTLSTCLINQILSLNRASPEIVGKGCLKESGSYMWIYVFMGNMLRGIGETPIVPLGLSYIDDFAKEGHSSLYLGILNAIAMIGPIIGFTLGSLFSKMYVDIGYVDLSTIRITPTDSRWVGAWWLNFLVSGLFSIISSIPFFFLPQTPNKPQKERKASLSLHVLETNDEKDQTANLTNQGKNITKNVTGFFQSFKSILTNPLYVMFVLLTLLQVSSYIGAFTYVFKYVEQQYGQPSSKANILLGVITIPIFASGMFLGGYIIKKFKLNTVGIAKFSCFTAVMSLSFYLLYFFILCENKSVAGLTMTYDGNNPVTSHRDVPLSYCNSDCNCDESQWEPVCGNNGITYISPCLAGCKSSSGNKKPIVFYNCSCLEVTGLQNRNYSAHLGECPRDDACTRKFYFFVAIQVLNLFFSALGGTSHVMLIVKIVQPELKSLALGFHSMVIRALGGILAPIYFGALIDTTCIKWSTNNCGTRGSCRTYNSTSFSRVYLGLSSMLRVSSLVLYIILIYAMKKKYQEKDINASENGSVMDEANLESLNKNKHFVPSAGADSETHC

[40] = biological target: T3, UDP-glucuronosyltransferase 1A1 (Homo sapiens, UniProt P22309); experiment: Inhibition of human recombinant UGT1A1 in presence of UDPGA cofactor
T3 sequence (P22309 whole entry): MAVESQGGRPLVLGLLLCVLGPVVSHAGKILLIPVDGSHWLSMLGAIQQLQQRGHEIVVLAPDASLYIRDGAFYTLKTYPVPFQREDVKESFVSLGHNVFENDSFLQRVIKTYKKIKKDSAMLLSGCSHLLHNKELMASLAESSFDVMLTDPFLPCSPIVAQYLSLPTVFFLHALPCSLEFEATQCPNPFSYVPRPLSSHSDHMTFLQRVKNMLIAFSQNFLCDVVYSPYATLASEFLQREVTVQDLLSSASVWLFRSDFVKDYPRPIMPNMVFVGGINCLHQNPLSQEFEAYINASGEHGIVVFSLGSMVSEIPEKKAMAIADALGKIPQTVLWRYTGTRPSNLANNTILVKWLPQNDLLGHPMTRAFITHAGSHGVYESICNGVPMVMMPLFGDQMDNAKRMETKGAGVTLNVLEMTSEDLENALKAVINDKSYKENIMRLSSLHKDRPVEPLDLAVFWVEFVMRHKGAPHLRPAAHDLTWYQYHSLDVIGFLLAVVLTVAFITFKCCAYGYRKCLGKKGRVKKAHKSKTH

Chain of CYP2C9 (P11712 whole entry): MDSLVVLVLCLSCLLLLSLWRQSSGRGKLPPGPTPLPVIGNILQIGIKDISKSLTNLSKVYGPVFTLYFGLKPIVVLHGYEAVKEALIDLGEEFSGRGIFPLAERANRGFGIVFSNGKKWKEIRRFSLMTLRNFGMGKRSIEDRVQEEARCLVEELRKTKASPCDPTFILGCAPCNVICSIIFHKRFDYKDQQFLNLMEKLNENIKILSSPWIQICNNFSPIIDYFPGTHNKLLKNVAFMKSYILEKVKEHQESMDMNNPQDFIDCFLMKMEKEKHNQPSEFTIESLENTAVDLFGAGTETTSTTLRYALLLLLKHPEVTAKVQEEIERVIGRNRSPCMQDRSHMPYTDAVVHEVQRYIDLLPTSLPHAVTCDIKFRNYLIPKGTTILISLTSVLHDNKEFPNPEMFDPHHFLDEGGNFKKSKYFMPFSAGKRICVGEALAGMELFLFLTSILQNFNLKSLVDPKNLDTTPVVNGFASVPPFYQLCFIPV
Chain of Voltage-dependent L-type calcium channel subunit alpha-1C (Q13936 whole entry): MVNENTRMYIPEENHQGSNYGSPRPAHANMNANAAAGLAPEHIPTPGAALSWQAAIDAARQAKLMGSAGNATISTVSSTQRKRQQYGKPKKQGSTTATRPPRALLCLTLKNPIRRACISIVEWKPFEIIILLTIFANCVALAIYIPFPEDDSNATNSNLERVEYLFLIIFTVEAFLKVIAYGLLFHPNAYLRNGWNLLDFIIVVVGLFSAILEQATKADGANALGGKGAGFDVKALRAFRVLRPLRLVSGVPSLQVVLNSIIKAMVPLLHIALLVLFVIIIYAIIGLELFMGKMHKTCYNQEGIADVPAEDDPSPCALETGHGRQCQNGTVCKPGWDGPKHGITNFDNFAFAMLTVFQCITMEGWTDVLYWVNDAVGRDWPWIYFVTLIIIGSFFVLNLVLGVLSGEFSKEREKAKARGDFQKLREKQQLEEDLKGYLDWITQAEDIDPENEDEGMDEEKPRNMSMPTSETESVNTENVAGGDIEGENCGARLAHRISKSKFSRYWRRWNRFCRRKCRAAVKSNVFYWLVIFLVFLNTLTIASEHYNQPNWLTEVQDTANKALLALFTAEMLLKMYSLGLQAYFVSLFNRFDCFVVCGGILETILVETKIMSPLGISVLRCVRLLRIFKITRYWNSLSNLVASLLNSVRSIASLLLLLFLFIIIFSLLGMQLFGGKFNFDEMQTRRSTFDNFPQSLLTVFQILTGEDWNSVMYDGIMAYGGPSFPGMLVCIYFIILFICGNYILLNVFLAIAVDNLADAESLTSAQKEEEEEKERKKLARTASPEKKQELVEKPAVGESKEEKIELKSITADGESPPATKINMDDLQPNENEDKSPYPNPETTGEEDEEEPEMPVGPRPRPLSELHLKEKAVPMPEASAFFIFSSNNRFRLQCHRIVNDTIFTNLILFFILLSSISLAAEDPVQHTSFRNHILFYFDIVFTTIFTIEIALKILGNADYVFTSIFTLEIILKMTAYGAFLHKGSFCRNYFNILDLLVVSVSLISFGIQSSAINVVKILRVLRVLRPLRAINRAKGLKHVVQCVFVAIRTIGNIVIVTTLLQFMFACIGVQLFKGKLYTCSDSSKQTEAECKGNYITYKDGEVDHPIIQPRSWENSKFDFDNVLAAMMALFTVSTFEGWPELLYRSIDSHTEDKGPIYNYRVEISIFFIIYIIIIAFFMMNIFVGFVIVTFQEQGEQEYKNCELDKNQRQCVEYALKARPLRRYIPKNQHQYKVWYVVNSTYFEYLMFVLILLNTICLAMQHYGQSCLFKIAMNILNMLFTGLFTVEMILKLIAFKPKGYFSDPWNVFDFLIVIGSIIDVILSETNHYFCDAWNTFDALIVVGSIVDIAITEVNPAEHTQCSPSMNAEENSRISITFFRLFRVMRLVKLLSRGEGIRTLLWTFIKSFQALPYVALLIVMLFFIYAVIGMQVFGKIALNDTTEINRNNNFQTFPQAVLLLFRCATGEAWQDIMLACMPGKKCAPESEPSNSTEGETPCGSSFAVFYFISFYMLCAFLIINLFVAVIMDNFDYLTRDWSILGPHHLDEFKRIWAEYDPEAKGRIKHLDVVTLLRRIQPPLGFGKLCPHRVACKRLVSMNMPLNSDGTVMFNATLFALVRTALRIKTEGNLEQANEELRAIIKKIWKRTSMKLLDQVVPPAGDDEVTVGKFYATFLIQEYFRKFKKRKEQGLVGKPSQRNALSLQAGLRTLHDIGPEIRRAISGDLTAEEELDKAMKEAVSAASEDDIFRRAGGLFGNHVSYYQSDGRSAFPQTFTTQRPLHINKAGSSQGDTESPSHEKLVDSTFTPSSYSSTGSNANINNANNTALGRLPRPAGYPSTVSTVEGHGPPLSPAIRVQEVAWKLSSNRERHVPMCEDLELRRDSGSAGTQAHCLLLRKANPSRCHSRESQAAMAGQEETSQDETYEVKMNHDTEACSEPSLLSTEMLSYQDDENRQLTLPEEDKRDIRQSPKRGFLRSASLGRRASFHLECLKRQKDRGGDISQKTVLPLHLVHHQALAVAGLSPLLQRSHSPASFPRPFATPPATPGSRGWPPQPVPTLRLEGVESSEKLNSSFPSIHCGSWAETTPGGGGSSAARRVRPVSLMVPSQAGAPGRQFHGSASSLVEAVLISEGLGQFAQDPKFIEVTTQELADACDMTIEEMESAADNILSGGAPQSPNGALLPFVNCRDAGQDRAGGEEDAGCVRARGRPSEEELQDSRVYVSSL
Chain of Sodium channel protein type 5 subunit alpha (Q14524 whole entry): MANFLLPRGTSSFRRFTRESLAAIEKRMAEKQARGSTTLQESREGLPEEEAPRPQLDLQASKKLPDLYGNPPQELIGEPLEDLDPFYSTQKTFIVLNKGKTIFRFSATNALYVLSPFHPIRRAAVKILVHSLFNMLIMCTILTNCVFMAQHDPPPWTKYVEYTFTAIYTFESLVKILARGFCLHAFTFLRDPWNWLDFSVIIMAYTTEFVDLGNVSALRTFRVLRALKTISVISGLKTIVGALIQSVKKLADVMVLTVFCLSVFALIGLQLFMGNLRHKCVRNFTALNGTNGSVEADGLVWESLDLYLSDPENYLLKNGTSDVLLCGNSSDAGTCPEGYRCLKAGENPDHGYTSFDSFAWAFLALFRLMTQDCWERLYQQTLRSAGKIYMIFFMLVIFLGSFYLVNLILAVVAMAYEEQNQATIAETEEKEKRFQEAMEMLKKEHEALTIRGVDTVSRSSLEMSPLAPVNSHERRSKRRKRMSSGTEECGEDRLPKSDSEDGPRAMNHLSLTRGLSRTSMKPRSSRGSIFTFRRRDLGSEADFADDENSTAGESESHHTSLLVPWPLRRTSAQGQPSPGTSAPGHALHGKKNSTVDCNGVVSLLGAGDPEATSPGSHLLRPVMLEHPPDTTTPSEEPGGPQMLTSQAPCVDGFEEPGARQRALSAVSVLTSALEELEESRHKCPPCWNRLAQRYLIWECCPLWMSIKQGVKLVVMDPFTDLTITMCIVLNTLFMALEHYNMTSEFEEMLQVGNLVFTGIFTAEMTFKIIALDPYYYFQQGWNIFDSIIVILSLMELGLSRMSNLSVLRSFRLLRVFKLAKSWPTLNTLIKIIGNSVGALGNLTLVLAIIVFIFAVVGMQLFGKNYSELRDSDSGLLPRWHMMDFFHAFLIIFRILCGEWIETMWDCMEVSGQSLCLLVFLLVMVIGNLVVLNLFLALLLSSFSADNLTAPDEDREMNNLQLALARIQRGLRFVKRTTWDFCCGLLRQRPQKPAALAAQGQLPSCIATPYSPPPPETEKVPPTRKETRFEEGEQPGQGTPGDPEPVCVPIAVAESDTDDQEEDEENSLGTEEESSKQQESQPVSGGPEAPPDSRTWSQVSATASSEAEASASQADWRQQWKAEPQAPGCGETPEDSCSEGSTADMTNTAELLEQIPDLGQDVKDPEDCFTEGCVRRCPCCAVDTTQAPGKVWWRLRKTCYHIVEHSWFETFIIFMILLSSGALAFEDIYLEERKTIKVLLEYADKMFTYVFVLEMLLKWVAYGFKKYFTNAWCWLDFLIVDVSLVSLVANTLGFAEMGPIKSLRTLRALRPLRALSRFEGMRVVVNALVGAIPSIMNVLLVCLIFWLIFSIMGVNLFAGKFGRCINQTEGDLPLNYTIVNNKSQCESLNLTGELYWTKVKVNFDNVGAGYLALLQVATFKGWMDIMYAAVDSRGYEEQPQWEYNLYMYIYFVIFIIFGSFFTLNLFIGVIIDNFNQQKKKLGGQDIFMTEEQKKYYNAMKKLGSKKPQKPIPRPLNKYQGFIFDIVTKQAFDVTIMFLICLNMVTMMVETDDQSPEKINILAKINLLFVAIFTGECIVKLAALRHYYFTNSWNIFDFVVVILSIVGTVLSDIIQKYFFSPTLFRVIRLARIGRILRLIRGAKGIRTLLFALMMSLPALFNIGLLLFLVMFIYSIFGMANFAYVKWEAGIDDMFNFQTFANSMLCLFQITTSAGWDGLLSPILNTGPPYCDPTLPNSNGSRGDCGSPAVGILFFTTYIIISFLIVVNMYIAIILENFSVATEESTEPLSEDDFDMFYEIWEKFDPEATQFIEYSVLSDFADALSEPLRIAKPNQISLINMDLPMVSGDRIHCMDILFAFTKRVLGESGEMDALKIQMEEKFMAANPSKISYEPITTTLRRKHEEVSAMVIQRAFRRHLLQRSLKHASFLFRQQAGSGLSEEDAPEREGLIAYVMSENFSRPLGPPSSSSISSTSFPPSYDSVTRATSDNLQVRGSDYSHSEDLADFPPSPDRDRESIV

C#Cc1nn(-c2cc(Cl)c(Oc3cc(C(C)C)c(=O)[nH]n3)c(Cl)c2)c(=O)[nH]c1=O
half-life at 3 h, 1 µM [1]: 1.72 h | Papp A→B at 1 h ([2]; Caco-2): 3 nm/s | half-life at 3 h, 1 µM [3]: 1.18 h | fraction unbound at 4 h, 2 µM [4]: < 0.002 | inhibition at 10 µM [5]: 61% | fraction unbound at 4 h, 2 µM [6]: 0.01 | half-life at 3 h, 1 µM [7]: 1.43 h | inhibition at 10 µM [8]: 87%

CC(C)c1cc(Oc2c(Cl)cc(-n3nc(C#N)c(=O)[nH]c3=O)cc2Cl)n[nH]c1=O [RESMETIROM]
AUC(0-t) at 24 h [9]: 9.41 µg·h/mL | half-life at 3 h, 1 µM [1]: 3.22 h | concentration at 24 h [10]: 613 ng/g | Cmax [11]: 2.55 µg/mL | Activity [12]: -34.8% | half-life at 3 h, 1 µM [13]: 1.85 h | half-life at 3 h, 1 µM [14]: > 6 h | Activity [15]: -15.6% | Activity [16]: -1.9% | Activity [17]: -44.2% | Kp [18]: 6.3 | Activity [19]: -4.6% | Papp ([2]; caco-2, 1 h): 0.03 10^-6 cm/s | minimal effective dose [20]: 0.15 mg/kg | Activity [21]: -34.5% | half-life at 3 h, 1 µM [3]: > 6 h | concentration at 24 h [22]: 73.6 ng/g | concentration at 24 h [23]: 0.0382 µg/mL | EC50 [24]: 0.303 µM | fraction unbound at 4 h, 2 µM [4]: 0.004 | inhibition at 10 µM [5]: 49% | fraction unbound at 4 h, 2 µM [6]: 0.003 | Activity [25]: 1.7% | half-life at 3 h, 1 µM [7]: > 6 h | Activity [26]: -0.8% | inhibition at 10 µM [8]: 91% | fraction unbound at 4 h, 2 µM [27]: 0.005 | concentration at 24 h [28]: 0.217 µg/mL | Activity [29]: -18.4% | Activity [30]: -25.8% | fraction unbound at 4 h, 2 µM [31]: 0.012 | Cmax [32]: 0.969 µg/mL | Activity [33]: Active | Kp [34]: 6.8 | Activity [35]: 9.5% | Activity [36]: -15.7%

CC(C)c1cc(Oc2c(Cl)cc(-n3nc(N)c(=O)[nH]c3=O)cc2Cl)n[nH]c1=O
IC50 [37]: > 10 µM | IC50 [38]: > 10 µM | IC50 [39]: 23.8 µM | IC50 [40]: 37.5 µM

From ChEMBL document CHEMBL5584359, “Discovery and Preclinical Profile of ALG-055009, a Potent and Selective Thyroid Hormone Receptor Beta (THR-β) Agonist for the Treatment of MASH” (J Med Chem, 2024)
